This note sets out measurements from patent US10464946B2, “Crystalline forms of thienopyrimidine compound” (HANMI PHARM. CO., LTD., priority 2015, dated 2019).

Data set [1] can be described thus: Storage stability under long-term and accelerated conditions. The class given is physicochemical. Conditions: for stability under a long-term storage condition: temperature of 25° C. and relative humidity of 60%; for stability under an accelerated condition: temperature of 40° C. and relative humidity of 75%. Here is the method: High performance liquid chromatography (HPLC) analysis was performed for the purposes of analyzing purity and contents such as a stability test, etc., using an Agilent 1100/1200 series HPLC Systems (Agilent, USA) analyzer, and the conditions used for HPLC were as follows.

Data set [2] in a line: Dynamic vapor sorption (DVS) hygroscopicity. The format is physicochemical. Conditions: relative humidity of 10% to 90%; for stability from the hygroscopic aspect: expected from the DVS result. Here is the method: Dynamic vapor sorption (DVS) analysis was performed in a DVS advantage (Surface measurement system, United Kingdom) analyzer at 25° C. with a relative humidity of 0% to 90%. A sample in an amount of 10 mg was placed into a wire-mesh vapor sorption balance pan and then attached to a DVS advantage dynamic vapor sorption balance via surface measurement systems. Until a stable weight was achieved (99.5% completion of steps), the sample was applied to a ramping profile with a relative humidity of 10% to 90% with a 10% increase of the sample while maintaining the sample in each step. Upon completion of the sorption cycle, the sample was dried using the same process while maintaining a relative humidity of […]. The changes in the sample weight during the adsorption/desorption cycle (repeated 3 times) were recorded and the hygroscopicity of the sample was measured.

As to `C=CC(=O)Nc1cccc(Oc2nc(Nc3ccc(N4CCN(C)CC4)cc3)nc3ccsc23)c1` [Example 3, N-(3-(2-(4-(4-methylpiperazin-1-yl)phenylamino)thieno[3,2-d]pyrimidin-4-yloxy)phenyl)acrylamide], in data set [1], the “stability under a long-term storage condition” value is recorded as “very stable” and the “stability under an accelerated condition” value is listed as “very stable”. Also, in data set [2], the “stability from the hygroscopic aspect” value was “very stable”.
For `C=CC(=O)Nc1cccc(Oc2nc(Nc3ccc(N4CCN(C)CC4)cc3)nc3ccsc23)c1` [Comparative Example 1, N-(3-(2-(4-(4-methylpiperazin-1-yl)phenylamino)thieno[3,2-d]pyrimidin-4-yloxy)phenyl)acrylamide, reference compound], the “stability from the hygroscopic aspect” value in data set [2] is reported as “unstable”.
In the case of `C=CC(=O)Nc1cccc(Oc2nc(Nc3ccc(N4CCN(C)CC4)cc3)nc3ccsc23)c1` [Example 1, N-(3-(2-(4-(4-methylpiperazin-1-yl)phenylamino)thieno[3,2-d]pyrimidin-4-yloxy)phenyl)acrylamide], the “stability from the hygroscopic aspect” value in data set [2] is “stable”. The “water content / hygroscopic level in the DVS” value in data set [2] (25° C.) is listed as “about 1.5%”.
As for `C=CC(=O)Nc1cccc(Oc2nc(Nc3ccc(N4CCN(C)CC4)cc3)nc3ccsc23)c1` [Example 4, N-(3-(2-(4-(4-methylpiperazin-1-yl)phenylamino)thieno[3,2-d]pyrimidin-4-yloxy)phenyl)acrylamide], in data set [1], the “stability under a long-term storage condition” value was “very stable” and the “stability under an accelerated condition” value is recorded as “very stable”. In addition, in data set [2], the “stability from the hygroscopic aspect” value was “very stable”.
